Consider 9 compounds from PubChem BioAssay (NCI).

Some test systems named below: UACC-257 melanoma; LOX IMVI melanoma; CAKI-1 renal; SNB-75 CNS; TK-10 renal; T-47D breast; UO-31 renal; NCI-H23 lung; SK-MEL-5 melanoma; HCT-116 colon.
What all share (experiment): growth of human tumour cells (NCI), 48 h

“And” between values parts separate entries of the source, which are not always exact repeats. Equal values may be shown once.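 Method: 48-hour compound exposure of cells in 96-well plates, five concentrations, linear interpolation of endpoints. GI50: concentration for 50% inhibition of growth. TGI is the concentration that stops growth completely.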 Bounds are passed on as bounds.

`Nc1cccc2c1CN(C1CCC(=O)NC1=O)C2=O` (stereo unspecified): the GI50 in the test on UACC-257 melanoma, in the test on LOX IMVI melanoma, in the test on CAKI-1 renal, with SNB-75 CNS, in the test with TK-10 renal and in the test with T-47D breast was above 100 µM each time. The GI50 with UO-31 renal, in the test with NCI-H23 lung, in the test with SK-MEL-5 melanoma and in the test on HCT-116 colon was above 100 µM each time. Moreover, the TGI in the test with UACC-257 melanoma, in the test with LOX IMVI melanoma, with CAKI-1 renal, in the test on SNB-75 CNS, with TK-10 renal and in the test on T-47D breast was above 100 µM throughout. The TGI in the test on UO-31 renal, in the test with NCI-H23 lung, in the test with SK-MEL-5 melanoma and with HCT-116 colon was above 100 µM throughout.
As for `O=C(N/N=C/c1ccncc1)c1ccc(C(F)(F)F)nc1Nc1cccc(C(F)(F)F)c1`, the GI50 was 3.78 µM in the test with UACC-257 melanoma; 0.913 µM with LOX IMVI melanoma; 1.48 µM in the test with CAKI-1 renal; 4.34 µM in the test on SNB-75 CNS; 2.52 µM in the test with TK-10 renal; 1.78 µM in the test with T-47D breast. The GI50 was 2.49 µM in the test with UO-31 renal, 4.34 µM in the test on NCI-H23 lung, 2.81 µM in the test with SK-MEL-5 melanoma and 1.4 µM with HCT-116 colon. The TGI was 10.6 µM in the test on UACC-257 melanoma; 12.3 µM in the test with LOX IMVI melanoma; 4.97 µM with CAKI-1 renal; 17 µM with SNB-75 CNS; 11.6 µM in the test on TK-10 renal; 10.5 µM in the test with T-47D breast. The TGI with UO-31 renal worked out at 10.2 µM; in the test on NCI-H23 lung it was 16.2 µM; with SK-MEL-5 melanoma, 11.7 µM; in the test with HCT-116 colon, 10.4 µM.
As to `Cc1cn(C2CC(N=[N+]=[N-])C(CO)O2)c(=O)[nH]c1=O` (stereo unspecified), the GI50 in the test with UACC-257 melanoma is above 1000 µM; in the test with LOX IMVI melanoma, 532 µM; in the test on CAKI-1 renal it was 479 µM; with T-47D breast it was above 1000 µM; in the test on UO-31 renal, above 1000 µM; with NCI-H23 lung, above 1000 µM. The TGI in the test on UACC-257 melanoma, in the test on LOX IMVI melanoma, in the test with CAKI-1 renal, with TK-10 renal, in the test on T-47D breast and with UO-31 renal was above 1000 µM throughout. Moreover, the TGI is above 1000 µM in the test on NCI-H23 lung, above 1000 µM with SK-MEL-5 melanoma and 422 µM in the test with HCT-116 colon.
As to `N#Cc1ccc(N2Cc3cc(Cl)ccc3OC3=C2C(=O)N(Cc2ccc(F)cc2)C3=O)cc1`, the GI50 with UACC-257 melanoma is 0.556 µM; with LOX IMVI melanoma, 0.453 µM; with CAKI-1 renal, 0.186 µM; in the test on SNB-75 CNS, 0.558 µM; in the test on TK-10 renal, 0.567 µM; in the test on T-47D breast, 0.502 µM. Moreover, the GI50 was 0.436 µM with UO-31 renal, 0.811 µM in the test with NCI-H23 lung, 1.26 µM in the test with SK-MEL-5 melanoma and 0.275 µM in the test with HCT-116 colon. Moreover, the TGI with UACC-257 melanoma was 1.15 µM; in the test on LOX IMVI melanoma it was 0.908 µM; in the test on CAKI-1 renal it was 0.38 µM; in the test on SNB-75 CNS it was 1.72 µM; in the test on TK-10 renal, 1.1 µM; in the test on T-47D breast it was 1.18 µM. Also, the TGI in the test on UO-31 renal was determined as 0.868 µM; in the test with NCI-H23 lung, 2.7 µM; in the test on SK-MEL-5 melanoma, 2.94 µM; with HCT-116 colon, 0.934 µM.
With `O=C1/C(=C\c2ccc([N+](=O)[O-])cc2)CS(=O)(=O)C/C1=C/c1ccc([N+](=O)[O-])cc1`, the GI50 is 0.931 µM in the test with UACC-257 melanoma; 0.0309 µM in the test with LOX IMVI melanoma; 0.121 µM in the test with CAKI-1 renal; 0.992 µM with TK-10 renal; 0.446 µM in the test with T-47D breast; 0.605 µM in the test on UO-31 renal. The results for the GI50 with NCI-H23 lung, in the test with SK-MEL-5 melanoma and in the test on HCT-116 colon were 0.252 µM, 0.4 µM and 0.0821 µM, respectively. Besides, the TGI is 5.33 µM with UACC-257 melanoma; 53.2 µM with SNB-75 CNS; 2.97 µM with TK-10 renal; 2.95 µM in the test on T-47D breast; 0.366 µM and 1.85 µM in the test with UO-31 renal; 0.651 µM and 5.12 µM in the test with NCI-H23 lung. The TGI was 3.03 µM in the test on SK-MEL-5 melanoma; 0.227 µM and 1.28 µM in the test on HCT-116 colon.
`NC(Cn1ccc(=O)c(O)c1)C(=O)O` (stereo unspecified): the TGI in the test on UACC-257 melanoma, with LOX IMVI melanoma, in the test on CAKI-1 renal, with TK-10 renal, with T-47D breast and with UO-31 renal was above 100 µM each time. The TGI with NCI-H23 lung, in the test on SK-MEL-5 melanoma and in the test on HCT-116 colon was above 100 µM throughout.
As to `O=S(=O)(CC(O)C(Cl)(Cl)Cl)NNc1ccccc1` (stereo unspecified), the TGI in the test with UACC-257 melanoma, in the test with LOX IMVI melanoma, with CAKI-1 renal, in the test on SNB-75 CNS, with TK-10 renal and in the test on T-47D breast was above 100 µM throughout. The TGI in the test with NCI-H23 lung, in the test on SK-MEL-5 melanoma and with HCT-116 colon was above 100 µM in each case.
Take `Cc1ccc(NC(C(=O)c2ccccc2)c2ccccc2)cc1` (stereo unspecified): the GI50 was 2.8 µM in the test with UACC-257 melanoma; 3.22 µM in the test on LOX IMVI melanoma; 10.6 µM with CAKI-1 renal; 3.58 µM in the test on SNB-75 CNS; 2.02 µM with T-47D breast; 13.8 µM with UO-31 renal. The GI50 was 3.5 µM in the test with NCI-H23 lung, 2.84 µM with SK-MEL-5 melanoma and 2.04 µM in the test with HCT-116 colon. Moreover, the TGI stood at 8.42 µM in the test with UACC-257 melanoma; 39.4 µM in the test with LOX IMVI melanoma; 39.7 µM in the test on CAKI-1 renal; 20.3 µM in the test on SNB-75 CNS; 11.5 µM with T-47D breast; 35.8 µM in the test on UO-31 renal. The TGI with NCI-H23 lung is above 100 µM; with SK-MEL-5 melanoma, 14.5 µM; in the test with HCT-116 colon, 12.4 µM.
As to `COc1cc(-c2nccc3[nH]c(-c4cccc5[nH]ccc45)nc23)cc(OC)c1OC`, the GI50 is below 0.01 µM in the test with LOX IMVI melanoma; below 0.01 µM with CAKI-1 renal; below 0.01 µM in the test with SNB-75 CNS; 12.1 µM in the test with TK-10 renal; 4.94 µM with T-47D breast; 0.124 µM in the test with UO-31 renal. The GI50 in the test on NCI-H23 lung, with SK-MEL-5 melanoma and in the test with HCT-116 colon was below 0.01 µM each time. Besides, the TGI in the test with LOX IMVI melanoma came out at 5.98 µM; with CAKI-1 renal it was 14.6 µM; in the test with SNB-75 CNS it was 16.5 µM; in the test with TK-10 renal, 24.8 µM; with T-47D breast, 27.3 µM; in the test with UO-31 renal, 16.2 µM. Besides, the TGI in the test with NCI-H23 lung was determined as 19.1 µM; in the test on SK-MEL-5 melanoma, 0.0108 µM; with HCT-116 colon, 0.0202 µM.
